Assay [1] deals with Cholinesterase (Equus caballus, UniProt P81908). Put plainly: Inhibition of horse BChE by Ellman's method.
Assay [2] deals with Cholinesterase (Equus caballus) (UniProt P81908). As to conditions: at 2 mg/mL; call rule not given here.
Assay [3] deals with Cholinesterase (Homo sapiens, UniProt P06276). Put plainly: Inhibition of human BChE by Ellman's method.
The target of assay [4] is Acetylcholinesterase (Electrophorus electricus) (UniProt O42275). The following applies: at 2 mg/mL.
Description: Inhibition of electric eel AChE at 2 mg/ml by Ellman's method
Assay [5] has as its target Acetylcholinesterase (Electrophorus electricus, UniProt O42275). Put plainly: Inhibition of electric eel AChE by Ellman's method. (Ellman's reagent forms a yellow product with free thiols.)
In assay [6] the target is Acetylcholinesterase (Homo sapiens, UniProt P22303).
Acetylcholinesterase (Homo sapiens, UniProt P22303), sequence (P22303 whole entry): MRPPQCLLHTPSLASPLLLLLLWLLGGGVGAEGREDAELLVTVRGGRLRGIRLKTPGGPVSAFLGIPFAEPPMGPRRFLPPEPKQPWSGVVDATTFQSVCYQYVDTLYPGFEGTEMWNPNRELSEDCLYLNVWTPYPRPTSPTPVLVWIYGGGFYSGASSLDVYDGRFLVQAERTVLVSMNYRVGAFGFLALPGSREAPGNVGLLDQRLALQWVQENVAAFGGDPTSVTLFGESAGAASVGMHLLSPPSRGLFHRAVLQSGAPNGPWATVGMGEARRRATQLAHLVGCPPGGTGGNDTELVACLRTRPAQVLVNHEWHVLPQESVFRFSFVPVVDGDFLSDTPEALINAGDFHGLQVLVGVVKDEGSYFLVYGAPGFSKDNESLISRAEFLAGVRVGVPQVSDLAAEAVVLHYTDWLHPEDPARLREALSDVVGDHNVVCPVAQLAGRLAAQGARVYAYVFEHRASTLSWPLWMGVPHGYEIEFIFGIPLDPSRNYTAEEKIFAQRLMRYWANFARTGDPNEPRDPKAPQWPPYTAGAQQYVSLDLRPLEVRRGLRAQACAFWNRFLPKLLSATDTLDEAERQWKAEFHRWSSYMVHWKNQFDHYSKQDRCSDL
Description: Inhibition of human AChE by Ellman's method
A short description of assay [7]: Inhibition of amyloid beta (1 to 40) aggregation assessed as induction of disaggregation treated 45 mins after formation of aggregates by thioflavin T fluorescence method.
Assay [8] in a line: Inhibition of HFIP-induced amyloid beta (1 to 40) aggregation after 45 mins by thioflavin T fluorescence method.
Assay [9] can be described thus: Inhibition of HFIP-induced amyloid beta (1 to 40) aggregation at 20 uM after 45 mins by thioflavin T fluorescence method.
The nature of assay [10]: Inhibition of amyloid beta (1 to 40) aggregation assessed as induction of disaggregation at 100 uM treated 24 hrs after formation of aggregates by thioflavin T fluorescence method.
The nature of assay [11]: Inhibition of amyloid beta (1 to 40) aggregation assessed as induction of disaggregation at 10 uM treated 24 hrs after formation of aggregates by thioflavin T fluorescence method.
The nature of assay [12]: Inhibition of amyloid beta (1 to 42) aggregation.
Assay [13] in a line: Inhibition of amyloid beta (1 to 40) aggregation assessed as induction of disaggregation at 100 uM treated 4 days after formation of aggregates by thioflavin T fluorescence method.
Assay [14] can be described thus: Inhibition of HFIP-induced amyloid beta (1 to 40) aggregation at 250 uM after 45 mins by thioflavin T fluorescence method.

Structures can show the parent of a compound that is named as a salt. Where only a bound is given, the exact number is not on record here.

Acetylcholinesterase (Electrophorus electricus, UniProt O42275), sequence (O42275 whole entry): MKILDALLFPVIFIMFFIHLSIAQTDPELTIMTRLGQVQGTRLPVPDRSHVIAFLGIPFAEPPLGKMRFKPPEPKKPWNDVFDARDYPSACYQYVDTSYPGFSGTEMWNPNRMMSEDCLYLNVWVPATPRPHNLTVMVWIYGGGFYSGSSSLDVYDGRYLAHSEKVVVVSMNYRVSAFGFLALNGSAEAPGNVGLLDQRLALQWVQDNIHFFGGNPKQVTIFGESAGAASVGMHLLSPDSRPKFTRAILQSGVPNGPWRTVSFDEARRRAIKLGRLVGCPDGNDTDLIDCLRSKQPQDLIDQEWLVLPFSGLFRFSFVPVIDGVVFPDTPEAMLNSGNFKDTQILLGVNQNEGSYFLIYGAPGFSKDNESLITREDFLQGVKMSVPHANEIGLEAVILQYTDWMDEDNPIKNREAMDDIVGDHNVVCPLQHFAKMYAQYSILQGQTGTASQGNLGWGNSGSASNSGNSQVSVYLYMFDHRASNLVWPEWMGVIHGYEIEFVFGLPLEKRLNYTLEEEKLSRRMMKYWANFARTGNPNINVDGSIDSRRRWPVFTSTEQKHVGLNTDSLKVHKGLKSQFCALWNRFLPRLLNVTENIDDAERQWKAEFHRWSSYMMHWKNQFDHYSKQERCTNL
Cholinesterase (Equus caballus), sequence (P81908 whole entry): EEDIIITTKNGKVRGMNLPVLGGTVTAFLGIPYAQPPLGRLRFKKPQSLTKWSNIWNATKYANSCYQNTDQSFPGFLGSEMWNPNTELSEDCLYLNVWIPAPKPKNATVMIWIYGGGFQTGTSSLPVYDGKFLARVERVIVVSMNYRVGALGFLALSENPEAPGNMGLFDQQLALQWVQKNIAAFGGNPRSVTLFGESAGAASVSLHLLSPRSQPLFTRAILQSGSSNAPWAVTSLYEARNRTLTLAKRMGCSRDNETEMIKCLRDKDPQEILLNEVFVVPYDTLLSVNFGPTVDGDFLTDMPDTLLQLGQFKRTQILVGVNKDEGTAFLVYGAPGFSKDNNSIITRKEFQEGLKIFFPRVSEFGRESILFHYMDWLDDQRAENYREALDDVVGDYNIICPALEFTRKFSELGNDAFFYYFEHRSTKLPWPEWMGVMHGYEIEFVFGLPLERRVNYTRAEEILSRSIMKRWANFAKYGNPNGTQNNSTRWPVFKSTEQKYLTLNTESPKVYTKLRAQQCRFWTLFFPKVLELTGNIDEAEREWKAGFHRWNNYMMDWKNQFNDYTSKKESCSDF
Cholinesterase (Equus caballus, UniProt P81908), sequence (P81908 whole entry): as above
Cholinesterase (Homo sapiens, UniProt P06276), sequence (P06276 whole entry): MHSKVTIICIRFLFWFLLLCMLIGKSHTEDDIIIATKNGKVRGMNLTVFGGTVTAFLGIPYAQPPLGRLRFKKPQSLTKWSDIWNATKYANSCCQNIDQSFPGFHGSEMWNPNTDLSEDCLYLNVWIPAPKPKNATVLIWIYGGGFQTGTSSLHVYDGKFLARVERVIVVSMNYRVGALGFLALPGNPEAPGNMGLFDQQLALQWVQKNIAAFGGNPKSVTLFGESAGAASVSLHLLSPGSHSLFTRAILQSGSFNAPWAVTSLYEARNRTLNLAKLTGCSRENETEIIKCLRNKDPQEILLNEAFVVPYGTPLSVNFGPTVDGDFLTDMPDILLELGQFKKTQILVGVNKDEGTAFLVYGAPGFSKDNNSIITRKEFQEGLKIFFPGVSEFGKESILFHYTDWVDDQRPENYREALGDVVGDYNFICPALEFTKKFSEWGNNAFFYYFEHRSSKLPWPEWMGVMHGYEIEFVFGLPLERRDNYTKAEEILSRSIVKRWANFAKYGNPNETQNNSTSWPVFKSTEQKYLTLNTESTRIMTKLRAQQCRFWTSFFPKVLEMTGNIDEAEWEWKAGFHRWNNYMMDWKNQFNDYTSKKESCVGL

As to `Cc1c([C@H](C)[C@@H]2NC[C@@H](C)C[C@H]2O)ccc2c1C[C@H]1[C@H]2CC=C2C[C@@H](O)CC[C@@]21C` [VERATRAMINE], the values for the IC50 on Cholinesterase [1] (read-out: IC50), on Cholinesterase [3] (read-out: IC50) and at Acetylcholinesterase [5] were 10.8 µM, 19.5 µM and “Not Active”, respectively. Moreover, the inhibition worked out at 66.2% in [2] and 24.5% in [4].
In the case of `C[C@@H]1CC[C@H]2[C@H](C)[C@H]3CC[C@@]4(O)[C@@H]5CC(=O)[C@H]6CC(=O)CC[C@]6(C)[C@H]5C[C@H]4[C@@H]3CN2C1` [SEVEDINDIONE], the values for the IC50 at Cholinesterase [1] (read-out: IC50), at Cholinesterase [3] (read-out: IC50) and against Acetylcholinesterase [5] were 3.68 µM, 0.27 µM and “Not Active”, respectively. Besides, the inhibition in assay [2] came out at 17%.
As to `COc1cc2c3cc1Oc1c(OO)c(OC)cc4c1[C@H](Cc1ccc(cc1)Oc1cc(ccc1O)C[C@H]3N(C)CC2)N(C)CC4.O=S(=O)(O)O` [OXYACANTHINE SULFATE], the IC50 on Cholinesterase [1] (read-out: IC50) was 4.1 µM; at Cholinesterase [3] (read-out: IC50), 1.89 µM; at Acetylcholinesterase [5] it was “Not Active”. The inhibition in assay [2] is 66.3%; in assay [4] it was 0.62%.
On to `C[C@@H]1OC(=O)[C@H]2C[C@H]3CCCC[C@@H]3[C@@H](/C=C/[C@H]3CCC[C@H](C)N3C)[C@@H]12` [HIMBACINE], for which the IC50 entry on Cholinesterase [1] is “Not Active”; against Cholinesterase [3], “Not Active”; at Acetylcholinesterase [5] (read-out: IC50) it was 22.7 µM. Moreover, in assay [4], the inhibition amounted to 57%.
For `CC[C@H]1CN2CCc3c([nH]c4ccccc34)[C@H]2C[C@@H]1/C(=C\OC)C(=O)OC` [HIRSUTINE], the IC50 on Cholinesterase [1] (read-out: IC50) was 4.97 µM; at Cholinesterase [3] (read-out: IC50) it was 1.97 µM; at Acetylcholinesterase [5] it was “Not Active”. In assay [2], the inhibition turned out to be 87.1%.
As for `Cl.Cl.c1ccc2c3c([nH]c2c1)[C@H]1[C@H]2CC[C@H]([C@@H]4CCCN[C@@H]42)N1CC3`, the concentration for half-maximal inhibition (IC50) at Cholinesterase [1] (read-out: IC50) is 10.6 µM; on Cholinesterase [3] (read-out: IC50), 9.01 µM; against Acetylcholinesterase [5] it was “Not Active”. Moreover, the results for the inhibition in [2] and in assay [4] were 48.7% and 20.5%, respectively.
Take `CCC1=C[C@@H]2CN3CCc4c([nH]c5ccccc45)[C@@](C(=O)OC)(C2)[C@@H]13` [CATHARANTHINE BASE]: the IC50 at Cholinesterase [1] (read-out: IC50) was 5.17 µM; on Cholinesterase [3] (read-out: IC50), 3.17 µM; on Acetylcholinesterase [5] it was “Not Active”. The inhibition in assay [2] is 75.2%; in [4], 5.28%.
As for `COc1cc2c(cc1OC)-c1cc3ccc(OC)c(OC)c3c[n+]1CC2.O.[Cl-]` [PALMATINE CHLORIDE HYDRATE], the IC50 at Acetylcholinesterase [6] is 1.69 µM; at Cholinesterase [1], “Not Active”; in [7], 174 µM; in assay [8], 92.2 µM. Moreover, the values for the inhibition in assay [2] and in assay [4] were 7.47% and 72.6%, respectively.
Take `COc1ccc2cc3[n+](cc2c1OC)CCc1cc2c(cc1-3)OCO2` [BERBERINE CHLORIDE]: the IC50 was found to be 106 µM in assay [7], 43.8 µM in [8] and 2.74 µM on Acetylcholinesterase [5] (read-out: IC50). In addition, the inhibition in assay [9] was 36%; in assay [4], 79%.
Turning to `Oc1ccc(/C=C/c2cc(O)cc(O)c2)cc1` [RESVERATROL], in [7], the half-maximal inhibitory concentration (IC50) amounted to 81.8 µM. The inhibition was 32% in assay [10], 36.8% in assay [2], 15.1% in assay [4] and 71% in assay [11].
For `O[C@H]1CCN2Cc3ccccc3N=C12` [VASICINE], the results for the IC50 at Cholinesterase [1] (read-out: IC50), at Cholinesterase [3] (read-out: IC50) and at Acetylcholinesterase [5] were 2.53 µM, 3.13 µM and “Not Active”, respectively. Further, the inhibition in assay [2] was 85.7%.
In assay [12], `Oc1cccc2[nH]ccc12` returned an IC50 of 85 µM.
Turning to `CC(C)=CCC[C@]1(C)[C@@H](CC=C(C)C)C[C@]2(CC=C(C)C)C(=O)C(CC=C(C)C)=C(O)[C@@]1(C(=O)C(C)C)C2=O`, the inhibition in [13] was 20%.
Take `C=C[C@H]1CN2CC[C@H]1C[C@@H]2[C@@H](O)c1ccnc2ccc(OC)cc12` [QUINIDINE]: the inhibition in [2] was 66%; in [4] it was 20.2%. The IC50 entry on Acetylcholinesterase [5] is “Not Active”.
As for `Nc1ccc(O)cc1`, in assay [14], the inhibition was 64%.
As for `C=C[C@H]1C[N@@]2CC[C@H]1C[C@@H]2[C@@H](O)c1ccnc2ccc(OC)cc12` [QUINIDINE], the IC50 on Cholinesterase [1] (read-out: IC50) was determined as 7.37 µM; on Cholinesterase [3] (read-out: IC50), 1.23 µM.
Turning to `COC(=O)[C@H]1[C@H]2C[C@H]3c4[nH]c5ccccc5c4CCN3C[C@H]2CC[C@@H]1O.Cl` [RAUWOLSCINE HYDROCHLORIDE], the results for the IC50 at Cholinesterase [1] (read-out: IC50), at Cholinesterase [3] (read-out: IC50) and at Acetylcholinesterase [5] were 8.38 µM, 13.7 µM and “Not Active”, respectively. Further, the inhibition in assay [2] was 59.1%; in assay [4] it was 12.4%.
Consider `c1ccc2c(c1)CN1CCCC1=N2` [DESOXYPEGANINE HYDROCHLORIDE HYDRATE], for which the figures for the IC50 at Cholinesterase [1] (read-out: IC50) and on Acetylcholinesterase [5] (read-out: IC50) were 11.9 µM and 11.8 µM, respectively. For the same compound, the inhibition stood at 94.8% in assay [2] and 70.6% in assay [4].
As to `OC1c2ccccc2N=C2CCCN21` (stereo not given) [PEGANOLE], the IC50 on Cholinesterase [1] (read-out: IC50) is 11.4 µM; at Cholinesterase [3] (read-out: IC50), above 20 µM; on Acetylcholinesterase [5], “Not Active”. Further, the inhibition in assay [2] was determined as 65.7%.
`COc1cc2c3cc1Oc1c(OC)c(OC)cc4c1[C@@H](Cc1ccc(OC(=O)c5ccc([N+](=O)[O-])cc5)c(c1)Oc1ccc(cc1)C[C@@H]3N(C)CC2)N(C)CC4` [E6 BERBAMINE]: the IC50 at Cholinesterase [1] (read-out: IC50) was 4.2 µM; on Cholinesterase [3] (read-out: IC50), 2.14 µM; against Acetylcholinesterase [5] it was “Not Active”. The inhibition in assay [2] is 0.47%.
For `C/C=C(/C)C(=O)O[C@H]1CC[C@@]2(C)[C@@H]3CC[C@H]4[C@]5(O)C[C@H](O)[C@@]6(O)[C@@H](CN7C[C@@H](C)CC[C@H]7[C@@]6(C)O)[C@]5(O)C[C@@]42O[C@]13O`, the inhibition in assay [2] is 6.44%; in assay [4] it was -3.72%.
As for `C[N+]1([O-])[C@@H]2CC[C@H]1C[C@H](OC(=O)C(CO)c1ccccc1)C2` (stereo not given in full), the inhibition in assay [2] was -2.78%; in [4], 25.9%.
The corresponding values for `O=C(O)/C=C/c1ccc(O)c(O)c1` are 0.67% and 2.2%.
The corresponding values for `CC(C)C[C@H](NC(=O)[C@H]1O[C@@H]1C(=O)O)C(=O)NCCCCN=C(N)N` are 12.1% and -7.43%.
For `C=CCc1ccc(O)c(-c2cc(CC=C)ccc2O)c1` the same measures were 0.25% and -2.45%.
As for `COc1cc2c(c3oc4cccc(O)c4c(=O)c13)[C@@H]1C=CO[C@@H]1O2`, the inhibition in assay [2] is -2.65%; in assay [4] it was 18.2%.
For IVERMECTIN the same measures were -3.98% and 17.8%.
For `COc1ccc(C[C@H]2NC[C@H](O)[C@H]2OC(C)=O)cc1` the same measures were -3.31% and -1.2%.
The corresponding values for NEOMYCIN SULFATE are 10.5% and -9.42%.
On to `COc1cc2c(c(OC)c1OC)-c1ccc(OC)c(=O)cc1[C@@H](NC=O)CC2`, for which the values for the inhibition in assay [2] and in assay [4] were -0.59% and 23.9%, respectively.
`C=C[C@]12CN(C)[C@@H]3[C@H]4CO[C@H](C[C@H]41)[C@]1(C(=O)Nc4ccccc41)[C@@H]32`: the inhibition was 31.1% in assay [2] and 6.89% in assay [4].
For `COc1cc(-c2oc3cc(O)ccc3c(=O)c2O)ccc1O`, the inhibition in assay [2] was determined as 12.8%; in assay [4], 3.26%.
The corresponding values for `O=c1c(O)c(-c2ccc(O)cc2)oc2cc(O)cc(O)c12` are 5.23% and 20%.
For `CC[C@H]1[C@@H]2C[C@H]3[C@@H]4N(C)c5ccccc5[C@]45C[C@@H]([C@@H]2[C@H]5O)N3[C@@H]1O`, the results for the inhibition in assay [2] and in assay [4] were 22.3% and 29.8%, respectively.
Take `O=C(O)Cc1c[nH]c2ccccc12`: the inhibition in assay [2] is -7.42%; in assay [4] it was 2.98%.
`O=C1Cc2c([nH]c3ccc(Br)cc23)-c2ccccc2N1`: the inhibition in assay [2] is -1%; in [4], -7.55%.
For `C=C1C[C@]23C[C@@]1(O)CC[C@H]2[C@@]12C=C[C@H](O)[C@@](C)(C(=O)O1)[C@H]2[C@@H]3C(=O)O` the same measures were -5.65% and -1.11%.
For `CC1=C[C@]23C(=O)[C@@H](C=C(COC(=O)c4ccccc4)[C@@H](O)[C@]2(O)[C@H]1OC(=O)c1ccccc1)[C@H]1[C@@H](C[C@H]3C)C1(C)C` the same measures were 1% and -0.16%.
The corresponding values for `O=c1cc(-c2ccc(O)cc2)oc2cc(OC3O[C@H](CO)[C@@H](O)[C@H](O)[C@H]3O)cc(O)c12` (stereo not given in full) are 5% and 24.9%.

By IC50 is commonly meant the concentration that gives 50% inhibition. Broadly, the inhibition is the change of the read-out against control, counted positive when it falls.

Source of the values: ChEMBL document CHEMBL2163249, “Exploration of natural compounds as sources of new bifunctional scaffolds targeting cholinesterases and beta amyloid aggregation: the case of chelerythrine” (Bioorg Med Chem, 2012).
